The results in this text go back to ChEMBL document CHEMBL1201862, “PubChem BioAssay data set” (2004).

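96-well plates; 48 h exposure; 5 concentrations. Endpoints by linear interpolation between flanking doses. Not reached: highest tested concentration assigned. GI50 is the concentration that inhibits growth by half.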 Activity calls are given as the source filed them. Rule as the data show it: active = GI50 up to about 1.1 µM and inactive = higher. Where only a bound is given, the exact number is not on record here.

Some test systems named below: A498; A549; BT-549; DU-145; HOP-92; HT-29; K562; KM12; MDA-MB-231; MOLT-4; OVCAR-4; OVCAR-5; PC-3; RXF 393; SF-268; SK-MEL-28; SK-MEL-2; SK-OV-3; T47D; UO-31.
Holding throughout (test): NCI anticancer screen, dose series, 48 h

Turning to `CCOC(=O)c1cc(I)c(-c2cc(C)no2)n1C`, the GI50 was 23.7 µM (inactive) with A498; 61.7 µM (inactive) with A549; 64.7 µM (inactive) with BT-549; 89.9 µM (inactive) in the experiment on DU-145; 36.4 µM (inactive) in the experiment on HOP-92; 74.1 µM (inactive) in the experiment with HT-29. For the same compound, the GI50 in the experiment on K562 was 26.8 µM (inactive); in the experiment on KM12 it was 21.1 µM (inactive); in the experiment with MDA-MB-231, 36 µM (inactive); in the experiment with MOLT-4, 21.2 µM (inactive); in the experiment with OVCAR-4 it was 21.8 µM (inactive); in the experiment on OVCAR-5, 93.3 µM (inactive). Moreover, the GI50 in the experiment with PC-3 is 38.5 µM (inactive); with RXF 393, 15.4 µM (inactive); with SF-268, 60.1 µM (inactive); in the experiment with SK-MEL-28 it was > 100 µM (inactive); in the experiment on SK-MEL-2 it was > 100 µM (inactive); with SK-OV-3, > 100 µM (inactive). The GI50 is 32.2 µM (inactive) in the experiment with T47D and 37.9 µM (inactive) in the experiment on UO-31.
In the case of `COc1ccc(C[C@@H](C(=O)O[C@H](C)[C@H](NC(=O)[C@@H](CC(C)C)N(C)C(=O)C2CCCN2C(=O)[C@H](C)O)C(=O)N2CCCCNC(=O)[C@@H](C)C(=O)[C@H](C(C)C)OC(=O)C[C@H](O)[C@H]2CC(C)C)N(C)C(C)=O)cc1` (stereo not given in full), the GI50 in the experiment on A498 is 14.3 µM (inactive); in the experiment with A549, 13.2 µM (inactive); with BT-549, 17.5 µM (inactive); with DU-145 it was 11.4 µM (inactive); with HOP-92, 15 µM (inactive); in the experiment on HT-29, 3.27 µM (inactive). Further, the GI50 with K562 was 8.05 µM (inactive); in the experiment with KM12, 4.89 µM (inactive); in the experiment on MDA-MB-231, 9.35 µM (inactive); with MOLT-4, 8.41 µM (inactive); with OVCAR-4, 7.83 µM (inactive); in the experiment on OVCAR-5 it was 7.89 µM (inactive). Moreover, the GI50 in the experiment on PC-3 is 15.8 µM (inactive); with RXF 393, 5.2 µM (inactive); in the experiment with SF-268, 17.8 µM (inactive); with SK-MEL-28, 4.13 µM (inactive); in the experiment with SK-MEL-2 it was 17.7 µM (inactive); in the experiment on SK-OV-3 it was 16.1 µM (inactive). Besides, the GI50 in the experiment on T47D is 10.7 µM (inactive); with UO-31, 36.1 µM (inactive).
As for `CN(C)CCNC(=O)c1cccc2ccc(-c3ccc(O)cc3)nc12`, the GI50 is 2.64 µM (inactive) with A498; 0.92 µM (active) with A549; 6.82 µM (inactive) in the experiment with BT-549; 2.33 µM (inactive) in the experiment on DU-145; 3.03 µM (inactive) in the experiment on HOP-92; 3.13 µM (inactive) in the experiment with HT-29. In addition, the GI50 in the experiment on K562 is 0.839 µM (active); in the experiment on KM12, 4.54 µM (inactive); with MDA-MB-231, 0.959 µM (active); with MOLT-4 it was 0.238 µM (active); in the experiment on OVCAR-4 it was 2.43 µM (inactive); in the experiment with OVCAR-5, 1.71 µM (inactive). For the same compound, the GI50 in the experiment with PC-3 was 2.37 µM (inactive); in the experiment on RXF 393, 4.72 µM (inactive); in the experiment with SF-268, 3.92 µM (inactive); in the experiment on SK-MEL-28 it was 3.15 µM (inactive); in the experiment on SK-MEL-2 it was 4.5 µM (inactive); with SK-OV-3 it was 3.01 µM (inactive). For the same compound, the GI50 in the experiment with T47D was 3.09 µM (inactive); in the experiment with UO-31, 2.39 µM (inactive).
`C=C1C(O)C23CCC4C(C(=O)O)(C(=O)O)CC(OC5OC(CO)C(O)C(OC(=O)CCc6ccccc6)C5NC(=O)CC(C)C)CC4(C)C2CCC1(O)C3` (stereo not given): the GI50 in the experiment with A498, with A549, in the experiment with BT-549, in the experiment with DU-145, with HOP-92 and with HT-29 was > 100 µM (inactive) in each case. Besides, the GI50 in the experiment with K562, with KM12, in the experiment on MDA-MB-231, in the experiment with MOLT-4, in the experiment with OVCAR-4 and with OVCAR-5 was > 100 µM (inactive) throughout. Also, the GI50 in the experiment with PC-3, with RXF 393, in the experiment with SF-268, in the experiment on SK-MEL-28, in the experiment with SK-MEL-2 and with SK-OV-3 was > 100 µM (inactive) throughout. Also, the GI50 with T47D and in the experiment on UO-31 was > 100 µM (inactive) each time.
